Reference: patent US8658690B2, “Use of novel compounds from fruiting body of Antrodia camphorata for treating an inflammatory disorder” (Well Shine Biotechnology Development Co., Ltd., priority 2008, dated 2014)
≈ marks a conversion by molar mass, not a printed value. Blank lines part the entries; values can stand above or below the compound they belong to.

Experiments:
Type in all cases: cell-based, murine
[1] = system: LPS-stimulated RAW264.7 macrophage cells; assay: Cell viability by MTT method in LPS-stimulated RAW264.7 cells; details: 30 min pretreatment then 50 ng/mL LPS 48 hours
Protocol: (§1) IL-6, a proinflammatory cytokine which is a useful marker of infection, is secreted by macrophages in many infectious and inflammatory states, including cardiac surgery, cardiogenic shock, coronary bypass and bacteria sepsis (Kantar, M. et al., Eur. J. Pediatr. 2000, 159, 156-157). Serum concentration of IL-6 has been reported to correlate with disease severity (Pathan, N. et al., Lancet 2004, 363, 203-209). The productions of IL-6 from LPS-stimulated macrophages were measured to evaluate the anti-inflammation effect of the compounds. The cells were pretreated with compounds isolated from A. camphorata for 30 min and then stimulated with 50 ng/mL LPS for 48 hours. The supernatants were collected for TNF-α and IL-6 assay, and the cells were collected for viability analysis by MTT method.

[2] = system: IL-6; assay: IL-6 secretion in LPS-stimulated RAW264.7 cells, ELISA; details: for IL-6 (pg/mL) secretion: 50 ng/mL LPS 48 hours, LPS control 238 ± 86; for IC50: Mus musculus, LPS-stimulated RAW264.7, 50 ng/mL LPS 48 hours, highest tested concentration 10 μg/mL, read-out: IC50 of IL-6 production
Protocol: (§2) The cytokine levels in culture supernatants were measured by sandwich ELISA methods as described by Chen and Lin (Chen, M. L. et al., Int. Arch. Allergy Immunol. 2007, 143, 21-30). More specifically, the anti-cytokine antibodies (PharMingen, San Diego, Calif.) were coated in the 96-well plates (Nunc, Roskilde, Denmark) after overnight incubation at 4° C. and having been blocked with 1% BSA PBS buffer for 30 min. The samples and standards (recombinant mouse cytokines, PharMingen) were added to the 96-well plates for 2 hours incubation. The biotin-conjugated antibodies (biotinylated rat anti-mouse cytokine monoclonal antibodies, PharMingen) were added and incubated. After washing, streptavidin-conjugated peroxidase was added for 1 hour. The substrates, 2,2′-azino-bis-3-ethyl-benzthiazoline-6-sulfonic acid (ABTS, Sigma), were added to each well for 20 min. The plates were read in a microplate autoreader (Microplate autoreader; Bio-Tek Instruments, Winooski, Vt.) at 405 nm.
as §1

[3] = system: TNF-α; assay: Spontaneous TNF-α secretion by RAW264.7 cells, sandwich ELISA of supernatants; details: spontaneous, 48 hours, control 88 ± 45
Protocol: as §2
(§3) To evaluate the immunomodulatory effects of these new compounds, the in vitro production of cytokines in RA W264.7 cells were treated without or with the compounds of the invention at different concentrations for 48 hours. The supernatants were collected for TNF-α assay, and cells were collected for viability analysis by MTT method.

[4] = system: RAW264.7 macrophage cells; assay: Cell viability by MTT method in RAW264.7 cells treated with compounds for 48 hours (no LPS); details: RAW264.7, no LPS, mean ± SD
Protocol: as §3

[5] = system: TNF-α; assay: TNF-α secretion in LPS-stimulated RAW264.7 cells, ELISA; details: 50 ng/mL LPS 48 hours, LPS control 3.81 ± 0.93
Protocol: as §2, §1

- IC50 [2]: 54 µg/mL (≈ 205 µM)
SMILES: CC(C)C[C@@H]1C(=O)N(O)C(=O)[C@H]1c1ccc(O)cc1 (relative stereo) [Compound 2, trans-1-Hydroxy-3-(4-hydroxyphenyl)-4-isobutylpyrrolidine-2,5-dione]
- Cell viability (%) ([1]; 0.5 μg/mL): 110 ± 5 %
- Cell viability (%) ([1]; 1 μg/mL): 111 ± 6 %
- Cell viability (%) ([1]; 5 μg/mL): 111 ± 8 %
- Cell viability (%) ([1]; 10 μg/mL): 109 ± 2 %
- IL-6 (pg/mL) secretion ([2]; 0.5 μg/mL): 216 ± 102 pg/mL
- IL-6 (pg/mL) secretion ([2]; 1 μg/mL): 224 ± 110 pg/mL
- IL-6 (pg/mL) secretion ([2]; 5 μg/mL): 210 ± 96 pg/mL
- IL-6 (pg/mL) secretion ([2]; 10 μg/mL): 191 ± 68 pg/mL
- TNF-α (pg/mL) secretion ([3]; 0.5 μg/mL): 108 ± 28 pg/mL
- TNF-α (pg/mL) secretion ([3]; 1 μg/mL): 97 ± 13 pg/mL
- TNF-α (pg/mL) secretion ([3]; 2 μg/mL): 105 ± 23 pg/mL
- TNF-α (pg/mL) secretion ([3]; 5 μg/mL): 96 ± 8 pg/mL
- TNF-α (pg/mL) secretion ([3]; 10 μg/mL): 128 ± 70 pg/mL
- Cell viability (%) ([4]; 0.5 μg/mL): 106 ± 7%
- Cell viability (%) ([4]; 1 μg/mL): 100 ± 5%
- Cell viability (%) ([4]; 2 μg/mL): 100 ± 5%
- Cell viability (%) ([4]; 5 μg/mL): 94 ± 6%
- Cell viability (%) ([4]; 10 μg/mL): 90 ± 4 %
- TNF-α (ng/mL) secretion ([5]; 0.5 μg/mL): 3.34 ± 0.58 ng/mL
- TNF-α (ng/mL) secretion ([5]; 1 μg/mL): 4.04 ± 0.46 ng/mL
- TNF-α (ng/mL) secretion ([5]; 5 μg/mL): 4.76 ± 0.65 ng/mL
- TNF-α (ng/mL) secretion ([5]; 10 μg/mL): 3.66 ± 0.67 ng/mL

- IC50 [2]: 96 µg/mL (≈ 390 µM)
SMILES: CC(C)CC1=C(c2ccc(O)cc2)C(=O)OC1=O [Compound 5, 3-(4-Hydroxyphenyl)-4-isobutylfuran-2,5-dione]
- Cell viability (%) ([1]; 0.5 μg/mL): 106 ± 4 %
- Cell viability (%) ([1]; 1 μg/mL): 105 ± 2 %
- Cell viability (%) ([1]; 5 μg/mL): 102 ± 2%
- Cell viability (%) ([1]; 10 μg/mL): 100 ± 3%
- IL-6 (pg/mL) secretion ([2]; 0.5 μg/mL): 221 ± 102 pg/mL
- IL-6 (pg/mL) secretion ([2]; 1 μg/mL): 227 ± 94 pg/mL
- IL-6 (pg/mL) secretion ([2]; 5 μg/mL): 225 ± 68 pg/mL
- IL-6 (pg/mL) secretion ([2]; 10 μg/mL): 215 ± 56 pg/mL
- TNF-α (pg/mL) secretion ([3]; 0.5 μg/mL): 100 ± 26 pg/mL
- TNF-α (pg/mL) secretion ([3]; 1 μg/mL): 102 ± 30 pg/mL
- TNF-α (pg/mL) secretion ([3]; 2 μg/mL): 90 ± 4 pg/mL
- TNF-α (pg/mL) secretion ([3]; 5 μg/mL): 94 ± 19 pg/mL
- TNF-α (pg/mL) secretion ([3]; 10 μg/mL): 106 ± 5 pg/mL
- Cell viability (%) ([4]; 0.5 μg/mL): 101 ± 7%
- Cell viability (%) ([4]; 1 μg/mL): 102 ± 5%
- Cell viability (%) ([4]; 2 μg/mL): 99 ± 6%
- Cell viability (%) ([4]; 5 μg/mL): 95 ± 9%
- Cell viability (%) ([4]; 10 μg/mL): 86 ± 8 %
- TNF-α (ng/mL) secretion ([5]; 0.5 μg/mL): 3.44 ± 0.31 ng/mL
- TNF-α (ng/mL) secretion ([5]; 1 μg/mL): 4.06 ± 1.14 ng/mL
- TNF-α (ng/mL) secretion ([5]; 5 μg/mL): 4.67 ± 1.09 ng/mL
- TNF-α (ng/mL) secretion ([5]; 10 μg/mL): 3.63 ± 0.58 ng/mL

- IC50 [2]: 17 µg/mL (≈ 68.5 µM)
SMILES: CC(C)C[C@H]1C(=O)OC(=O)[C@H]1c1ccc(O)cc1 (relative stereo) [Compound 3, cis-3-(4-Hydroxyphenyl)-4-isobutyldihydrofuran-2,5-dione]
- Cell viability (%) ([1]; 0.5 μg/mL): 105 ± 6%
- Cell viability (%) ([1]; 1 μg/mL): 104 ± 6%
- Cell viability (%) ([1]; 5 μg/mL): 99 ± 3%
- Cell viability (%) ([1]; 10 μg/mL): 91 ± 4 %
- IL-6 (pg/mL) secretion ([2]; 0.5 μg/mL): 214 ± 82 pg/mL
- IL-6 (pg/mL) secretion ([2]; 1 μg/mL): 234 ± 109 pg/mL
- IL-6 (pg/mL) secretion ([2]; 5 μg/mL): 185 ± 76 pg/mL
- IL-6 (pg/mL) secretion ([2]; 10 μg/mL): 147 ± 53 pg/mL
- TNF-α (pg/mL) secretion ([3]; 0.5 μg/mL): 55 ± 2 pg/mL
- TNF-α (pg/mL) secretion ([3]; 1 μg/mL): 74 ± 7 pg/mL
- TNF-α (pg/mL) secretion ([3]; 2 μg/mL): 68 ± 7 pg/mL
- TNF-α (pg/mL) secretion ([3]; 5 μg/mL): 68 ± 26 pg/mL
- TNF-α (pg/mL) secretion ([3]; 10 μg/mL): 77 ± 35 pg/mL
- Cell viability (%) ([4]; 0.5 μg/mL): 91 ± 9%
- Cell viability (%) ([4]; 1 μg/mL): 87 ± 8%
- Cell viability (%) ([4]; 2 μg/mL): 80 ± 9 %
- Cell viability (%) ([4]; 5 μg/mL): 72± 11 %
- Cell viability (%) ([4]; 10 μg/mL): 67 ± 15 %
- TNF-α (ng/mL) secretion ([5]; 0.5 μg/mL): 3.17 ± 0.70 ng/mL
- TNF-α (ng/mL) secretion ([5]; 1 μg/mL): 3.64 ± 0.84 ng/mL
- TNF-α (ng/mL) secretion ([5]; 5 μg/mL): 3.88 ± 0.37 ng/mL
- TNF-α (ng/mL) secretion ([5]; 10 μg/mL): 3.90 ± 0.10 ng/mL
